Test results taken from US4100346A, “Certain 7(o-amino-methyl- or methylaminomethylphenyl- or cyclohexadienyl- or thienylacetamide)-3[1-carboxymethyl-(or ethyl- or propyl-)-tetrazol-5-ylthiomethyl]-3-cephem-4-carboxylic acids” (Bristol-Myers Company, priority 1976, dated 1978).
Values after ≈ are worked out from the molar mass of the structure shown. Read-outs that look alike come from different tables or passages of the source.

Tests used:
Bacteroides Fragilis = assay: Growth inhibitory activity, antibiotic dilution technique (obligate anaerobes); type: cell-based; details: 3 strains, geometric mean when applicable, read-out: Minimum inhibitory concentration
Method: (§1) Antibiotic spectrum. […] Procedures were as follows:
c. Obligate anaerobes. The assay was performed on solid medium, consisting of Brain Heart Infusion Broth (BBL) supplemented with 5% defibrinated sheep blood and 1% Ionagar (Colab). […] The plates were incubated at 37° C. for 48 hours under the oxygen-free conditions attained with a Gas-Pak (BBL) Brewer jar system.

Clostridium sp. = assay: microbe, parasite or virus in culture; type: cell-based; details: read-out: Minimum inhibitory concentration
Method: as §1
c. Obligate anaerobes. The assay was performed on solid medium, consisting of Brain Heart Infusion Broth (BBL) supplemented with 5% defibrinated sheep blood and 1% Ionagar (Colab).

Staphylococcus Aureus [1] = assay: Effect of inoculum size on susceptibility of Staphylococcus aureus; type: cell-based; details: for MICB /MICA: MIC at 10^6 over MIC at 10^2 organisms; for MIC: Staphylococcus aureus, geometric means, read-out: Minimum inhibitory concentration
Enterobacter cloacae [2] = assay: Intramuscular treatment of systemically infected mice; type: in vivo; details: im
Description: (§2) Treatment of Systemically Infected Mice. The procedures were identical with those published previously [Leitner et al., BL-S640, a Cephalosporin With a Broad Spectrum of Antibacterial Activity: Bioavailability and Therapeutic Properties in Rodents, Antimicrob. Agents Chemother.
(a) the hog gastric mucin used in infections with Staphylococcus aureus No. 2 was purchased from American Laboratories, Inc., Omaha, Neb.

Staphylococcus aureus [3] = assay: as above; type: in vivo; details: im, read-out: PD50 /treatment
Description: as §2, with “Chemother. 7:306-310, (1975)], except that:” for “Chemother.”
(§3) (a) the hog gastric mucin used in infections with Staphylococcus aureus No. 2 was purchased from American Laboratories, Inc., Omaha, Neb. (lot No. 154163) and b) that the medium used to suspend all other organisms contained 3% (rather than 4%) hog gastric mucin (type 1701W, Wilson Laboratories, Inc., Park Forest South, Ill.).
(§4) *Animals infected with penicillinase-producing staphyloccal strains (No.
(§5) and 3) were treated 0 and 2 hours after infection; the others were treate
(§6) 1 and 3.5 hours after infection.

Streptococcus pneumoniae = assay: as above; type: in vivo; details: im, 3.5 h, read-out: PD50 /treatment
Description: as §2, with “Chemother. 7:306-310, (1975)], except that:” for “Chemother.”
as §3, §4, §5, §6

Streptococcus pyogenes = assay: as above; type: in vivo; details: im, 3.5 h, read-out: PD50 /treatment
Description: as §2, with “Chemother. 7:306-310, (1975)], except that:” for “Chemother.”
as §3, §4, §5, §6

in vitro = in vitro ADME, human; details: human, serum; read-out: protein bound (converted)
Serratia marcescens = assay: Growth inhibitory activity, antibiotic dilution technique; details: read-out: Minimum inhibitory concentration
Vibrio cholerae = assay: as above; details: read-out: Minimum inhibitory concentration
Pseudomonas aeruginosa = assay: as above; details: read-out: Minimum inhibitory concentration
Alcaligenes sp. = assay: as above
Listeria monocytogenes = assay: as above; details: read-out: Minimum inhibitory concentration
Providencia stuartii = assay: as above
Haemophilus influenzae = assay: as above; details: including 9 ampicillin-resistant strains
Enterobacter cloacae [4] = assay: Effect of inoculum size on susceptibility of Enterobacteriaceae
Proteus mirabilis = assay: as above
Proteus vulgaris = assay: as above
Proteus rettgeri = assay: as above; details: Providencia rettgeri

O=C(Cc1cccs1)N[C@@H]1C(=O)N2C(C(=O)[O-])=C(C[n+]3ccccc3)CS[C@H]12 [Cephaloridine]
MIC (Bacteroides Fragilis): 79 µg/mL (≈ 190 µM) | MIC (Clostridium sp.): 0.63 µg/mL (≈ 1.52 µM) | MICB /MICA (Staphylococcus Aureus [1]; Lacking penicillinase, 3 strains): 1.6 | MICB /MICA (Staphylococcus Aureus [1]; Penicillinase producer, 26 strains): 20 | MIC (Staphylococcus Aureus [1]; Lacking penicillinase, 3 strains, A, Inoculum of 10^2 organisms): 0.025 µg/mL (≈ 0.0602 µM) | MIC (Staphylococcus Aureus [1]; Lacking penicillinase, 3 strains, B, inoculum of 10^6 organisms): 0.039 µg/mL (≈ 0.0939 µM) | MIC (Staphylococcus Aureus [1]; Penicillinase producer, 26 strains, A, Inoculum of 10^2 organisms): 0.077 µg/mL (≈ 0.185 µM) | MIC (Staphylococcus Aureus [1]; Penicillinase producer, 26 strains, B, inoculum of 10^6 organisms): 1.6 µg/mL (≈ 3.85 µM) | effect of cell concentration on growth inhibitory activity (Staphylococcus Aureus [1]; penicillinase-producing strains): sharply | ED50 (Enterobacter cloacae [2]; Enterobacter cloacae, 3.5 h, read-out: PD50 /treatment): 200 mg/kg | PD50 /treatment (Enterobacter cloacae [2]; mouse, in vivo): > 400 mg/kg | ED50 (Staphylococcus aureus [3]; 3.5 h, Staphylococcus aureus strain 1, challenge 2 × 10^5 - 3 × 10^5, treated 1 and 3.5 hours after infection): 0.01 mg/kg | ED50 (Staphylococcus aureus [3]; Staphylococcus aureus strain 2 (penicillinase-producing), challenge 1 × 10^9, treated 0 and 2 hours after infection): 3.2 mg/kg | ED50 (Staphylococcus aureus [3]; Staphylococcus aureus strain 3 (penicillinase-producing), challenge 5 × 10^8 - 7 × 10^9, treated 0 and 2 hours after infection): 3.3 mg/kg | ED50 (Streptococcus pneumoniae; Streptococcus pneumoniae strain 1, challenge 2 × 10^3 - 9 × 10^3, treated 1 and 3.5 hours after infection): 0.1 mg/kg | ED50 (Streptococcus pneumoniae; Streptococcus pneumoniae strain 2, challenge 1 × 10^4 - 3 × 10^4, treated 1 and 3.5 hours after infection): 0.26 mg/kg | ED50 (Streptococcus pyogenes; Streptococcus pyogenes strain 1, challenge 2 × 10^3 -6 × 10^3, treated 1 and 3.5 hours after infection): 0.06 mg/kg | ED50 (Streptococcus pyogenes; Streptococcus pyogenes strain 2, challenge 1 × 10^4 - 5 × 10^4, treated 1 and 3.5 hours after infection): 0.02 mg/kg | fraction unbound (in vitro): 0.7 | MIC (Serratia marcescens): > 125 µg/mL | MIC (Vibrio cholerae): 16 µg/mL (≈ 38.5 µM) | MIC (Pseudomonas aeruginosa): > 125 µg/mL | MIC (Alcaligenes sp.; read-out: Minimum inhibitory concentration, Alcaligenes sp., 2 strains, geometric mean when applicable): > 125 µg/mL | MIC (Alcaligenes sp.; read-out: Minimum inhibitory concentration, Alcaligenes sp., 4 strains, geometric mean when applicable): > 125 µg/mL | MIC (Alcaligenes sp.; read-out: Minimum inhibitory concentration, Alcaligenes sp., 5 strains, geometric mean when applicable): 6.1 µg/mL (≈ 14.7 µM) | MIC (Listeria monocytogenes): 0.91 µg/mL (≈ 2.19 µM) | percent of strains inhibited (Providencia stuartii): negligible | relative activity against Haemophilus influenzae (Haemophilus influenzae): about equally active | MIC (Enterobacter cloacae [4]; read-out: Minimum Inhibitory Concentration, Enterobacter cloacae strain 1, A, Inoculum of 10^2 organisms): 4 µg/mL (≈ 9.63 µM) | MIC (Enterobacter cloacae [4]; read-out: Minimum Inhibitory Concentration, Enterobacter cloacae strain 1, B, Inoculum of 10^6 organisms): > 250 µg/mL | MIC (Enterobacter cloacae [4]; read-out: Minimum Inhibitory Concentration, Enterobacter cloacae strain 2, A, Inoculum of 10^2 organisms): 125 µg/mL (≈ 301 µM) | MIC (Enterobacter cloacae [4]; read-out: Minimum Inhibitory Concentration, Enterobacter cloacae strain 2, B, Inoculum of 10^6 organisms): > 250 µg/mL | MIC (Enterobacter cloacae [4]; read-out: Minimum Inhibitory Concentration, Enterobacter cloacae strain 3, A, Inoculum of 10^2 organisms): 16 µg/mL (≈ 38.5 µM) | MIC (Enterobacter cloacae [4]; read-out: Minimum Inhibitory Concentration, Enterobacter cloacae strain 3, B, Inoculum of 10^6 organisms): 250 µg/mL (≈ 602 µM) | MIC (Enterobacter cloacae [4]; read-out: Minimum Inhibitory Concentration, Enterobacter cloacae strain 4, A, Inoculum of 10^2 organisms): > 250 µg/mL | MIC (Enterobacter cloacae [4]; read-out: Minimum Inhibitory Concentration, Enterobacter cloacae strain 4, B, Inoculum of 10^6 organisms): > 250 µg/mL | MIC (Enterobacter cloacae [4]; read-out: Minimum Inhibitory Concentration, Enterobacter cloacae strain 5, A, Inoculum of 10^2 organisms): 63 µg/mL (≈ 152 µM) | MIC (Enterobacter cloacae [4]; read-out: Minimum Inhibitory Concentration, Enterobacter cloacae strain 5, B, Inoculum of 10^6 organisms): > 250 µg/mL | MIC (Proteus mirabilis; read-out: Minimum Inhibitory Concentration, Proteus mirabilis strain 1, A, Inoculum of 10^2 organisms): 4 µg/mL (≈ 9.63 µM) | MIC (Proteus mirabilis; read-out: Minimum Inhibitory Concentration, Proteus mirabilis strain 1, B, Inoculum of 10^6 organisms): 16 µg/mL (≈ 38.5 µM) | MIC (Proteus mirabilis; read-out: Minimum Inhibitory Concentration, Proteus mirabilis strain 2, A, Inoculum of 10^2 organisms): 8 µg/mL (≈ 19.3 µM) | MIC (Proteus mirabilis; read-out: Minimum Inhibitory Concentration, Proteus mirabilis strain 2, B, Inoculum of 10^6 organisms): 16 µg/mL (≈ 38.5 µM) | MIC (Proteus mirabilis; read-out: Minimum Inhibitory Concentration, Proteus mirabilis strain 3, A, Inoculum of 10^2 organisms): 8 µg/mL (≈ 19.3 µM) | MIC (Proteus mirabilis; read-out: Minimum Inhibitory Concentration, Proteus mirabilis strain 3, B, Inoculum of 10^6 organisms): 32 µg/mL (≈ 77 µM) | MIC (Proteus mirabilis; read-out: Minimum Inhibitory Concentration, Proteus mirabilis strain 4, A, Inoculum of 10^2 organisms): 4 µg/mL (≈ 9.63 µM) | MIC (Proteus mirabilis; read-out: Minimum Inhibitory Concentration, Proteus mirabilis strain 4, B, Inoculum of 10^6 organisms): 32 µg/mL (≈ 77 µM) | MIC (Proteus mirabilis; read-out: Minimum Inhibitory Concentration, Proteus mirabilis strain 5, A, Inoculum of 10^2 organisms): 4 µg/mL (≈ 9.63 µM) | MIC (Proteus mirabilis; read-out: Minimum Inhibitory Concentration, Proteus mirabilis strain 5, B, Inoculum of 10^6 organisms): 16 µg/mL (≈ 38.5 µM) | MIC (Proteus vulgaris; read-out: Minimum Inhibitory Concentration, Proteus vulgaris strain 1, A, Inoculum of 10^2 organisms): 4 µg/mL (≈ 9.63 µM) | MIC (Proteus vulgaris; read-out: Minimum Inhibitory Concentration, Proteus vulgaris strain 1, B, Inoculum of 10^6 organisms): 16 µg/mL (≈ 38.5 µM) | MIC (Proteus vulgaris; read-out: Minimum Inhibitory Concentration, Proteus vulgaris strain 2, A, Inoculum of 10^2 organisms): 8 µg/mL (≈ 19.3 µM) | MIC (Proteus vulgaris; read-out: Minimum Inhibitory Concentration, Proteus vulgaris strain 2, B, Inoculum of 10^6 organisms): 250 µg/mL (≈ 602 µM) | MIC (Proteus vulgaris; read-out: Minimum Inhibitory Concentration, Proteus vulgaris strain 4, A, Inoculum of 10^2 organisms): 8 µg/mL (≈ 19.3 µM) | MIC (Proteus vulgaris; read-out: Minimum Inhibitory Concentration, Proteus vulgaris strain 4, B, Inoculum of 10^6 organisms): 16 µg/mL (≈ 38.5 µM) | MIC (Proteus rettgeri; read-out: Minimum Inhibitory Concentration, Proteus rettgeri strain 1, A, Inoculum of 10^2 organisms): 4 µg/mL (≈ 9.63 µM) | MIC (Proteus rettgeri; read-out: Minimum Inhibitory Concentration, Proteus rettgeri strain 1, B, Inoculum of 10^6 organisms): 250 µg/mL (≈ 602 µM) | MIC (Proteus rettgeri; read-out: Minimum Inhibitory Concentration, Proteus rettgeri strain 2, A, Inoculum of 10^2 organisms): 0.25 µg/mL (≈ 0.602 µM) | MIC (Proteus rettgeri; read-out: Minimum Inhibitory Concentration, Proteus rettgeri strain 2, B, Inoculum of 10^6 organisms): > 250 µg/mL | MIC (Proteus rettgeri; read-out: Minimum Inhibitory Concentration, Proteus rettgeri strain 3, A, Inoculum of 10^2 organisms): 16 µg/mL (≈ 38.5 µM) | MIC (Proteus rettgeri; read-out: Minimum Inhibitory Concentration, Proteus rettgeri strain 3, B, Inoculum of 10^6 organisms): > 250 µg/mL
